From patent US12240811B2, “N-heterocyclic five-membered ring-containing capsid protein assembly inhibitor, pharmaceutical composition and uses thereof” (CHIA TAI TIANQING PHARMACEUTICAL GROUP CO., LTD., priority 2019, dated 2025)

Key:
[1] = test system: HBV DNA in HepAD38 cells; test: In vitro cell HBV DNA inhibitory activity in HepAD38 cells; format: cell-based; details: Hepatitis B virus, 144 h, 6 days treatment, intracellular capsid HBV DNA by qPCR, read-out: EC50, anti-HBV activity in HepAD38 cells
Method: (§1) A bottle of HepG2.2.15 (Wuhan Institute of Virology) or HepAD38 cells in good exponential growth state was taken, washed once by adding 5 mL PBS, and then thereto was added 3 mL trypsin. After digesting at room temperature for 5 min, 2 mL trypsin was discarded, and then the sample was placed in a cell culture incubator and digested for 10 min. The cells were taken out and observed under a microscope (whether the cells were individually round and there was no adhesion between the cells). 10 mL complete medium was added to terminate the digestion. After pipetting into a single cell suspension, 10 μL of the cell suspension was taken out for cell counting with a cell counter, and then diluted with a complete medium and adjusted to a cell density of 1*10^5 cells/mL. […]
(§2) Compounds dissolved in DMSO were subjected to two-fold gradient dilution (10 concentrations in total) with complete medium. […] After lysing at room temperature for 10 min, DNA was extracted, and HBV DNA in the intracellular viral capsid was measured by real-time fluorescence quantitative PCR. The inhibition rate was calculated based on the Ct value, and the EC50 value was calculated by the four-parameter method.

[2] = test system: HBV DNA in HepG2.2.15 cells; test: In vitro cell HBV DNA inhibitory activity in HepG2.2.15 cells; format: cell-based; details: Hepatitis B virus, 144 h, 6 days treatment, intracellular capsid HBV DNA by qPCR, read-out: EC50, anti-HBV activity in HepG2.2.15 cells
Method: as §1, §2

[3] = target: CYP 3A4 (Homo sapiens (Human), UniProt P08684); test: CYP450 enzyme inhibition study, CYP 3A4; format: in vitro ADME; details: human liver microsomes; read-out: Subtypes IC50 3A4
Method: (§3) 500 μL of a final incubation system contains 50 μL of human liver microsomes (protein concentration: 0.2 mg/mL, Corning), 1 μL of mixed CYP450 specific substrates (CYP1A2, CYP 2B6, CYP 2C9, CYP2C19, CYP 2D6, and CYP 3A4), 398 μL PBS buffer (pH7.4), 1 μL specific positive inhibitor (positive control group) or the test compound (formulated with acetonitrile), and 50 μL NADPH+MgCl2. Duplicate incubation systems of 0.5 mL each were formulated for each CYP450 subtype. A total volume of 450 μL of a uniformly mixed solution of the substrate and the enzyme was formulated in each tube, and the solution and NADPH were pre-incubated at 37° C. for 5 minutes, respectively. Then 50 μL of the mixed solution of NADPH+MgCl2 was added for reaction. 50 μL of the reaction solution was taken out at 30 minutes, and the reaction was terminated with 300 μL of ice acetonitrile containing an internal standard. In addition, two control groups of 500 μL each without NADPH were prepared in parallel as a negative control group.
(§4) Sample pre-treatment: To 50 μL of the incubated sample was added 300 μL of ice acetonitrile containing an internal standard, and then precipitated. After vortexing for 5 minutes, the sample was centrifugated (12000 rpm, 4° C.) for 10 minutes. 75 μL of the supernatant was pipetted, and 75 μL of ultrapure water was added thereto for dilution and mixed uniformly. […]

[4] = target: CYP 2C9 (Homo sapiens (Human), UniProt P11712); test: CYP450 enzyme inhibition study, CYP 2C9; format: in vitro ADME; details: human liver microsomes; read-out: Subtypes IC50 2C9
Method: as §3, §4

[5] = target: CYP 2B6 (Homo sapiens (Human), UniProt P20813); test: CYP450 enzyme inhibition study, CYP 2B6; format: in vitro ADME; details: human liver microsomes; read-out: Subtypes IC50 2B6
Method: as §3, §4

[6] = Plasma protein binding assay, rat plasma; format: in vitro ADME
Method: Formulation of plasma sample: 495 μL of blank plasmas of the corresponding species (mouse, rat, dog, monkey, and human) were drawn respectively, and thereto was added 5 μL of the corresponding test compound solution or positive control to give plasma sample solutions having a plasma drug concentration of the compound of 1 μM, and 10 μM, respectively (formulated with acetonitrile).
The pre-treated dialysis membrane was placed in a high-throughput equilibrium dialysis device, and 100 μL of the plasma sample solution and PBS buffer solution were drawn and added respectively to both sides of the dialysis membrane (sample side and buffer side) (n=3). After the equilibration device was sealed with a film, it was incubated at 37° C. overnight (100 rpm). After dialysis equilibrium was reached, 50 μL samples were drawn from the sample side and the buffer side, respectively, and the reaction was terminated by adding ice acetonitrile containing an internal standard.
as §4, with “plasma-side” for “incubated”, “450” for “300”, “uniformly. 1 μL of the resulting solution was injected for analysis.” for “uniformly.”

[7] = test system: HBV DNA in serum; test: pAAV/HBV mouse model; format: in vivo, C57BL/6 mice; details: 3 mpk intragastric once daily
Method: 6-8 week old male C57BL/6 mice (Shanghai Lingchang Biotechnology Co., Ltd.) were used, and each mouse was injected with purified recombinant plasmid pAAV/HBV1.2 ([…]) dissolved in PBS equivalent to a volume of about 10% of its body weight through the tail vein within 3-8 s. Blood was collected from the orbits of the mice at 3 days after the plasmid injection to detect serum HBV DNA. The model mice having uniform serum DNA were selected and divided into: a model control group, a vehicle control group, and a test substance group. Mice in each group were continuously administered intragastrically once daily for 10 days at a dose of 3 mg/kg. The mouse serum was taken on day 0, 4, 7, and 10 after the administration, and the mice were sacrificed on day 10 to take liver tissue samples. The HBV DNA copy numbers in serum and liver of the mice were detected by fluorescent quantitative PCR method.

Chain of CYP 2C9 (P11712 whole entry): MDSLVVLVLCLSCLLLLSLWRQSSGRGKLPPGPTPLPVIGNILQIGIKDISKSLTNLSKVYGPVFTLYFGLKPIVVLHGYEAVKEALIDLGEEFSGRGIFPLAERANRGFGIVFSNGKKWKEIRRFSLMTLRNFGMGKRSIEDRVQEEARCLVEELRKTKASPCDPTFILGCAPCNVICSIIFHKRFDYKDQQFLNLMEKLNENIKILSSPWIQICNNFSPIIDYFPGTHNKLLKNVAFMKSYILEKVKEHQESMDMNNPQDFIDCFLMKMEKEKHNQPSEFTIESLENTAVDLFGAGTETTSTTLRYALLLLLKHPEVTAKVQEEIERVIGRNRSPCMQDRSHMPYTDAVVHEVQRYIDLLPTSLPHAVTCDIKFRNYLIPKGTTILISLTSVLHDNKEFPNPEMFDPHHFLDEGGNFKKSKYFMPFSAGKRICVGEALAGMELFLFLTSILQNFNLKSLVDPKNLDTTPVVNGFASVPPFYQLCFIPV
Chain of CYP 3A4 (P08684 whole entry): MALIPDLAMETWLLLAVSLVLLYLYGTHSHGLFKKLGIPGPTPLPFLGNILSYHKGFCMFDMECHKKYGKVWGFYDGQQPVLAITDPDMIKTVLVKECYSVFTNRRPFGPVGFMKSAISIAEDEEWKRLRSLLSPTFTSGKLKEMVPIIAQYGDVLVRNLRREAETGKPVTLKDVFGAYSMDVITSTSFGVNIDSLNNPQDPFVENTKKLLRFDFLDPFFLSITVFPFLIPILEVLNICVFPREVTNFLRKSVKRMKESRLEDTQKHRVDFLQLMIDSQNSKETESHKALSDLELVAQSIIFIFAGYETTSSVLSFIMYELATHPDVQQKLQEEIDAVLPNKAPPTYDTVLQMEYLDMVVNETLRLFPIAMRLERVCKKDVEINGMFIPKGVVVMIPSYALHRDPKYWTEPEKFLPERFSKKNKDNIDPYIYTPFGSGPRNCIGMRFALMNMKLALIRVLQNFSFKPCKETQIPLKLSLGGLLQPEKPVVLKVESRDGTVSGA
Chain of CYP 2B6 (P20813 whole entry): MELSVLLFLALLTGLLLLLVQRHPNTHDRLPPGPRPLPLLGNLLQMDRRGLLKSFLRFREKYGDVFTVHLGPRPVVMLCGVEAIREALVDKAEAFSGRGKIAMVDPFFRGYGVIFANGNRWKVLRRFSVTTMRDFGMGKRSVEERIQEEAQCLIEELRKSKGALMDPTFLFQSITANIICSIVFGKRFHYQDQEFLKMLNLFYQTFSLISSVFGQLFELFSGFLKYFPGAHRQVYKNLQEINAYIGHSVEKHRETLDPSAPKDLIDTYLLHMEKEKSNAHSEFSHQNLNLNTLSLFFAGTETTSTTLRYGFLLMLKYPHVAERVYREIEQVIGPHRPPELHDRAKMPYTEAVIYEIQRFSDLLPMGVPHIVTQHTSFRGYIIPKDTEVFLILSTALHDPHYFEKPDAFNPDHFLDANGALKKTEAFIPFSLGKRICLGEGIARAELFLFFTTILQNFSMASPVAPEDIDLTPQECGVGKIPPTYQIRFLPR

Structure (SMILES): Cc1[nH]c(C(=O)C(=O)N[C@@H](C)C(F)(F)F)c(C)c1C(=O)Nc1ccc(F)c(C#N)c1 [Example 1, (S)—N-(3-cyano-4-fluorophenyl)-2,4-dimethyl-5-(2-oxo-2-((1,1,1-trifluoroprop-2-yl)amino)acetyl)-1H-pyrrole-3-carboxamide]
- EC50 [1]: 24 nM
- EC50 [2]: 17.4 nM
- IC50 [3]: > 200000 nM
- IC50 [4]: > 200000 nM
- IC50 [5]: > 200000 nM
- Binding rate (%) Rat ([6]; 1 μM): 95.0%
- Binding rate (%) Rat ([6]; 10 μM): 95.3%
- Reduction levels (log10) of HBV DNA in serum, Day 4 ([7]; Day 4): 2.95 log10
- Reduction levels (log10) of HBV DNA in serum, Day 7 ([7]; Day 7): 4.13 log10
- Reduction levels (log10) of HBV DNA in serum, Day 10 ([7]; Day 10): 2.71 log10
